Seven cell lines from the supplement of paper PMC10307832 can be followed below.

Holding throughout (experiment): relative viability (nuclei count vs DMSO), 5 days (fraction); higher = more cells survive
Compound in the assay “FG-4592 + Dasatinib”: Cc1nc(C(=O)NCC(=O)O)c(O)c2ccc(Oc3ccccc3)cc12 [FG-4592] + Cc1nc(Nc2ncc(C(=O)Nc3c(C)cccc3Cl)s2)cc(N2CCN(CCO)CC2)n1 [Dasatinib] (partner 0.075 µM)
Put shortly: (§1)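 Five library-drug doses in √10 steps were combined with a fixed anchor-drug dose, or a single drug was given alone, by pin tool to lung cancer cell lines in 1536-well plates the day after seeding. Nuclei were stained and counted after 5 days. Relative viability is the nuclei count in treated wells over that in vehicle wells, taken as the median of duplicate plates.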

Compound in the assay “FG-4592 + Decitabine”: Cc1nc(C(=O)NCC(=O)O)c(O)c2ccc(Oc3ccccc3)cc12 [FG-4592] + Nc1ncn([C@H]2C[C@H](O)[C@@H](CO)O2)c(=O)n1 [Decitabine] (partner 2 µM)
The gist of the method: as §1

Compound in the assay “FG-4592 + Vorinostat”: Cc1nc(C(=O)NCC(=O)O)c(O)c2ccc(Oc3ccccc3)cc12 [FG-4592] + O=C(CCCCCCC(=O)Nc1ccccc1)NO [Vorinostat] (partner 1 µM)
Put shortly:
as §1

Compound in the assay “IU1-47 + Vorinostat”: CC1=CC(=C(N1C2=CC=C(C=C2)Cl)C)C(=O)CN3CCCCC3 [IU1-47] + O=C(CCCCCCC(=O)Nc1ccccc1)NO [Vorinostat] (partner 1 µM)
Put shortly:
as §1

As to NCI-H2085, the relative viability with FG-4592 + Dasatinib (first compound 0.08 µM) came to 0.17; in the assay with FG-4592 + Dasatinib (first compound 0.253 µM) it was 0.228; with FG-4592 + Dasatinib (first compound 0.8 µM) it was 0.196; with FG-4592 + Dasatinib (first compound 2.53 µM) it was 0.254; in the assay with FG-4592 + Dasatinib (first compound 8 µM), 0.264; in the assay with FG-4592 + Decitabine (first compound 0.08 µM), 0.554. In addition, the relative viability is 0.493 in the assay with FG-4592 + Decitabine (first compound 0.253 µM); 0.51 in the assay with FG-4592 + Decitabine (first compound 0.8 µM); 0.597 with FG-4592 + Decitabine (first compound 2.53 µM); 0.545 in the assay with FG-4592 + Decitabine (first compound 8 µM); 0.693 with FG-4592 + Vorinostat (first compound 0.08 µM); 0.755 with FG-4592 + Vorinostat (first compound 0.253 µM). Besides, the relative viability stood at 0.65 with FG-4592 + Vorinostat (first compound 0.8 µM); 0.769 with FG-4592 + Vorinostat (first compound 2.53 µM); 0.771 in the assay with FG-4592 + Vorinostat (first compound 8 µM); 0.853 with IU1-47 + Vorinostat (first compound 0.08 µM); 0.861 with IU1-47 + Vorinostat (first compound 0.253 µM); 0.791 in the assay with IU1-47 + Vorinostat (first compound 0.8 µM). Besides, the relative viability turned out to be 0.626 with IU1-47 + Vorinostat (first compound 2.53 µM) and 0.76 with IU1-47 + Vorinostat (first compound 8 µM).

As for NCI-H1793, the relative viability with FG-4592 + Dasatinib (first compound 0.08 µM) worked out at 0.37; in the assay with FG-4592 + Dasatinib (first compound 0.253 µM), 0.311; in the assay with FG-4592 + Dasatinib (first compound 2.53 µM) it was 0.354; with FG-4592 + Dasatinib (first compound 8 µM) it was 0.328; with FG-4592 + Decitabine (first compound 0.253 µM), 0.476; in the assay with FG-4592 + Decitabine (first compound 2.53 µM) it was 0.55. Moreover, the relative viability was 0.398 with FG-4592 + Decitabine (first compound 8 µM); 0.677 with FG-4592 + Vorinostat (first compound 0.253 µM); 0.638 with FG-4592 + Vorinostat (first compound 2.53 µM); 0.678 with FG-4592 + Vorinostat (first compound 8 µM); 0.628 with IU1-47 + Vorinostat (first compound 0.08 µM); 0.77 with IU1-47 + Vorinostat (first compound 0.8 µM). The relative viability in the assay with IU1-47 + Vorinostat (first compound 2.53 µM) stood at 0.64; with IU1-47 + Vorinostat (first compound 8 µM) it was 0.686.

On to LC-2-ad, for which the relative viability is 0.513 in the assay with FG-4592 + Dasatinib (first compound 0.08 µM); 0.559 with FG-4592 + Dasatinib (first compound 0.253 µM); 0.536 in the assay with FG-4592 + Dasatinib (first compound 2.53 µM); 0.66 with FG-4592 + Dasatinib (first compound 8 µM); 0.804 with FG-4592 + Decitabine (first compound 0.08 µM); 0.66 with FG-4592 + Decitabine (first compound 0.253 µM). In addition, the relative viability with FG-4592 + Decitabine (first compound 0.8 µM) amounted to 0.755; with FG-4592 + Decitabine (first compound 2.53 µM), 0.853; with FG-4592 + Decitabine (first compound 8 µM) it was 0.837; in the assay with FG-4592 + Vorinostat (first compound 0.08 µM), 0.715; in the assay with FG-4592 + Vorinostat (first compound 0.253 µM), 0.645; in the assay with FG-4592 + Vorinostat (first compound 0.8 µM), 0.782. Further, the relative viability with FG-4592 + Vorinostat (first compound 2.53 µM) is 0.637; in the assay with FG-4592 + Vorinostat (first compound 8 µM), 0.683; in the assay with IU1-47 + Vorinostat (first compound 0.08 µM), 0.736; with IU1-47 + Vorinostat (first compound 0.253 µM) it was 0.736; with IU1-47 + Vorinostat (first compound 0.8 µM) it was 0.71; with IU1-47 + Vorinostat (first compound 8 µM), 0.715.

Turning to COR-L 105, the relative viability with FG-4592 + Dasatinib (first compound 0.08 µM) is 0.309; with FG-4592 + Dasatinib (first compound 0.253 µM) it was 0.306; with FG-4592 + Dasatinib (first compound 0.8 µM), 0.294; in the assay with FG-4592 + Dasatinib (first compound 2.53 µM) it was 0.258; with FG-4592 + Dasatinib (first compound 8 µM), 0.286; with FG-4592 + Decitabine (first compound 0.08 µM), 0.649. The relative viability is 0.691 with FG-4592 + Decitabine (first compound 0.253 µM); 0.597 with FG-4592 + Decitabine (first compound 0.8 µM); 0.621 with FG-4592 + Decitabine (first compound 2.53 µM); 0.641 with FG-4592 + Decitabine (first compound 8 µM); 0.723 with FG-4592 + Vorinostat (first compound 0.08 µM); 0.755 with FG-4592 + Vorinostat (first compound 0.253 µM). Moreover, the relative viability in the assay with FG-4592 + Vorinostat (first compound 0.8 µM) was determined as 0.843; with FG-4592 + Vorinostat (first compound 2.53 µM), 0.699; in the assay with FG-4592 + Vorinostat (first compound 8 µM), 0.769; in the assay with IU1-47 + Vorinostat (first compound 0.08 µM), 1.02; with IU1-47 + Vorinostat (first compound 0.253 µM) it was 1.01; in the assay with IU1-47 + Vorinostat (first compound 0.8 µM) it was 0.779. Further, the relative viability with IU1-47 + Vorinostat (first compound 2.53 µM) turned out to be 0.745; in the assay with IU1-47 + Vorinostat (first compound 8 µM), 0.958.

NCI-H1355: the relative viability in the assay with FG-4592 + Dasatinib (first compound 0.08 µM) was 0.763; with FG-4592 + Dasatinib (first compound 0.253 µM), 0.638; with FG-4592 + Dasatinib (first compound 0.8 µM) it was 0.476; in the assay with FG-4592 + Dasatinib (first compound 2.53 µM), 0.553; in the assay with FG-4592 + Dasatinib (first compound 8 µM) it was 0.554; with FG-4592 + Decitabine (first compound 0.08 µM), 0.355. For the same cell line, the relative viability with FG-4592 + Decitabine (first compound 0.253 µM) came out at 0.297; with FG-4592 + Decitabine (first compound 2.53 µM), 0.378; with FG-4592 + Decitabine (first compound 8 µM), 0.307; in the assay with FG-4592 + Vorinostat (first compound 0.08 µM), 0.553; with FG-4592 + Vorinostat (first compound 0.253 µM) it was 0.632; with FG-4592 + Vorinostat (first compound 2.53 µM), 0.596. Also, the relative viability with FG-4592 + Vorinostat (first compound 8 µM) stood at 0.644; in the assay with IU1-47 + Vorinostat (first compound 0.08 µM), 0.72; with IU1-47 + Vorinostat (first compound 0.253 µM), 0.646; with IU1-47 + Vorinostat (first compound 0.8 µM), 0.674; in the assay with IU1-47 + Vorinostat (first compound 8 µM) it was 0.518.

As to H3255, the relative viability in the assay with FG-4592 + Dasatinib (first compound 0.08 µM) stood at 0.361; with FG-4592 + Dasatinib (first compound 0.253 µM) it was 0.418; in the assay with FG-4592 + Dasatinib (first compound 0.8 µM), 0.417; in the assay with FG-4592 + Dasatinib (first compound 2.53 µM), 0.404; with FG-4592 + Dasatinib (first compound 8 µM), 0.48; with FG-4592 + Decitabine (first compound 0.08 µM), 0.702. Also, the relative viability in the assay with FG-4592 + Decitabine (first compound 0.253 µM) was determined as 0.585; with FG-4592 + Decitabine (first compound 0.8 µM) it was 0.6; with FG-4592 + Decitabine (first compound 2.53 µM) it was 0.592; with FG-4592 + Decitabine (first compound 8 µM) it was 0.557; with FG-4592 + Vorinostat (first compound 0.08 µM), 0.89; with FG-4592 + Vorinostat (first compound 0.253 µM), 0.684. Besides, the relative viability in the assay with FG-4592 + Vorinostat (first compound 0.8 µM) turned out to be 0.721; with FG-4592 + Vorinostat (first compound 2.53 µM), 0.693; with FG-4592 + Vorinostat (first compound 8 µM), 0.84; with IU1-47 + Vorinostat (first compound 0.08 µM), 0.918; in the assay with IU1-47 + Vorinostat (first compound 0.253 µM), 0.883; with IU1-47 + Vorinostat (first compound 0.8 µM), 1.02. Further, in the assay with IU1-47 + Vorinostat (first compound 8 µM), the relative viability amounted to 0.669.

With NCI-H1993, the relative viability with FG-4592 + Dasatinib (first compound 0.08 µM) came out at 0.513; with FG-4592 + Dasatinib (first compound 0.253 µM), 0.631; with FG-4592 + Dasatinib (first compound 0.8 µM), 0.473; in the assay with FG-4592 + Dasatinib (first compound 2.53 µM) it was 0.547; with FG-4592 + Dasatinib (first compound 8 µM), 0.396; with FG-4592 + Decitabine (first compound 0.08 µM), 0.695. Further, the relative viability with FG-4592 + Decitabine (first compound 0.253 µM) was 0.602; with FG-4592 + Decitabine (first compound 2.53 µM), 0.665; in the assay with FG-4592 + Decitabine (first compound 8 µM), 0.572; in the assay with FG-4592 + Vorinostat (first compound 0.08 µM) it was 1.06; in the assay with FG-4592 + Vorinostat (first compound 0.253 µM), 0.69; with FG-4592 + Vorinostat (first compound 2.53 µM) it was 0.642. In addition, the relative viability turned out to be 0.814 with FG-4592 + Vorinostat (first compound 8 µM); 0.635 with IU1-47 + Vorinostat (first compound 0.08 µM); 0.858 with IU1-47 + Vorinostat (first compound 0.253 µM); 0.819 with IU1-47 + Vorinostat (first compound 0.8 µM); 0.835 in the assay with IU1-47 + Vorinostat (first compound 2.53 µM); 0.718 with IU1-47 + Vorinostat (first compound 8 µM).
